The test system of one data set is hind paw edema. The data set is described as follows: Carrageenan mouse paw edema model of inflammation. The data set is classed as in vivo, ICR derived mice. The conditions noted are these: PO once daily × 5. The protocol:
Test substance LPF-35 at 5 mg/kg and reference agent Aspirin at 100 mg/kg were administered orally once daily for 5 consecutive days to groups of 8 ICR (4 male and 4 female) derived mice weighing 22±2 gms. One hour after 5th dose, right hind paw was injected with carrageenan (0.05 ml of 1% suspension intraplantar). The hind paw edema was measured 4 hours later. Convention: reduction of hind paw edema by 30 percent or more indicates significant acute anti-inflammatory activity. Each animal was fasted overnight before Carrageenan challenge.

The next data set deals with heart allograft. The data set is described as follows: Heart allograft survival model in rats. The data set is classed as in vivo, rats (Wistar Furh recipients, Baffalo donors). The conditions noted are these: FK506 alone, 0.8 mg/kg oral gavage once daily days 0 to +14; n=10. Here is the method: The activity of LPF-35 in combination with FK506 was compared with FK506 alone in a heart allograft survival model in rats. Wistar Furh (WF; RT1) recipients of heart allograft from Baffalo donors (BUF; RT1b) were administered oral LPF-35 (5 mg/kg) plus FK506 (0.8 mg/kg), FK506 alone or placebo. The results are presented as a mean±standard deviation (MST±SD). Significance between groups was calculated using Student T-test with p<0.05 considered as significant. In group # 1 control WF recipients of BUF heart allografts (n=5) were untreated and heart allografts were rejected in an acute fashion within 6.4±0.5 days. In group # 2 WF recipients of BUF heart allografts (n=10) were treated daily once (days 0 to +14) with 0.8 mg/kg FK506 delivered by oral gavage. This protocol was effective in prolonging the survival of heart allografts to a MST of 22.3±6.7 days (p=0.0002). […] In group # 3 WF recipients of BUF heart allografts (n=6) were treated daily once (days 0 to +14) with 0.8 mg/kg FK506 delivered by oral gavage in combination with LPF-35 daily for 14 days. This protocol was effective in prolonging the survival of heart allografts to a MST of 49.5±28 days (p=0.0077). […] An effect of reducing organ transplant rejection is indicative of beneficial effects in GVHD.

For data set [1], the system named is clinical bacterial isolates. The data set is described as follows: Peptide MICs by NCCLS broth microdilution. The data set is classed as cell-based. The conditions noted are these: geometric mean MIC; 742 clinical bacterial isolates representing 35 species. The protocol:
The novel peptides described in this application have shown substantial anti-microbial activity. Peptide MICs were determined by the broth microdilution method recommended by the NCCLS (M7-A5). In each medium, the concentrations of peptide were serial two-fold dilutions ranging from 8192 to 8 μg/mL. Mueller-Hinton broth and Peptone broth were used throughout, using the following media: 1) 5rCAMHB, 2) CAMHB supplemented with 3% lysed horse blood, 3) Haemophilus test medium, 4) peptone broth at pH 7, 5) peptone broth at pH 7.5, 6) peptone broth supplemented with 25 μg/mL calcium and 12.5 μg/mL magnesium, 7) peptone broth supplemented with 1.5 g/L soluble starch. On each day of testing, colony counts were performed on the broth from the growth control well immediately after inoculation from two randomly selected isolates to assure appropriate inoculum density. A total of 742 clinical bacterial isolates representing 35 species were tested.

The next data set deals with Ascaris suum antigen. Briefly: Sheep model of allergic asthma. The data set is classed as in vivo. The conditions noted are these: lung resistance and carbachol response, FIG. 5, FIG. 6. The protocol:
Peptides LPF-32 and LPF-35 were both tested in an established sheep model of allergic asthma. […] Allergic sheep previously characterized as dual responders (displaying early and late phases of bronchoconstriction), were administered peptide followed by inhalation challenge with Ascaris suum antigen.
Baseline dose response curves to aerosolized carbachol were obtained in all sheep 1-3 days before the start of dosing. Sheep were dosed with peptide or placebo by nebulization or oral gavage in the inhaled and oral experiments respectively. The sensitized sheep were then challenged with Ascaris suum antigen to produce early and late airway responses, as measured by mean lung resistance (pulmonary flow resistance, RL). Mean lung resistance was measured using tracheal and pleural pressure catheters connected to a differential pressure transducer. […]
To assess airway responsiveness, cumulative dose response curves to carbachol were obtained, as measured by specific lung resistance, or SRL (SRL=RL * thoracic gas volume). […] Airway hypersensitivity (AH) was determined by calculating the cumulative carbachol dose that increased SRL by 400% over the post-saline value by interpolation from the dose response curve. […]

The test system of another data set is MIP3-α. Briefly: MIP3-α expression in hepatocytes, ELISA. The conditions noted are these: 0.04 and 0.2 mg/mL, supernatant at 2 h and 4 h; FIG. 9. The data set is classed as cell-based, human. The source says:
Still further, it is envisioned that lactoferrin related peptides stimulate production of MIP-3alpha from hepatocytes. Lactoferrin is known to contribute to the defense systems of the body through its anti-microbial properties. […] The innate immune system is the ‘first line of defense’ of the body against hostile environments and comprise of a variety of effector and cellular mechanisms. This innate immune response is initially likely mediated by the ‘detection system’ of receptors known to be present on the surface of the gut epithelial cells, such as pattern recognition receptors, IL-1 receptor and general ‘scavenger’ receptors. These receptors recognize and respond to specific structural features of the presented molecules. As a result, various intracellular signaling pathways may be initiated (e.g., NFκB, Wnt, etc.) that result in the overall orchestration of the cellular response of the body to the prevailing biological situation (e.g., infection). RhLF and peptides derived from rhLF elicit a similar response of human hepatocytes in vitro in terms of producing an important chemokine—namely MIP-3-alpha. It is surmised that some general structural features that are responsible for the biological response to rhLF are retained in peptides that are structurally related to the parent molecule (rhLF).
MIP3-α has been associated with the stimulation of innate immune responses. […]

Where “and” joins values, the source holds several entries; their conditions need not be identical. Identical values can stand only once. Where no end group is shown, it is not given here.

As to `CC(=O)Oc1ccccc1C(=O)O` [Aspirin], in the data set on hind paw edema (LP, average n=8), the “Paw Volume LP” value was 12.38 ×0.01 ml. For the same compound, the “Paw Volume Diff.” value with hind paw edema (RP minus LP) is 5.00 ×0.01 ml. The “% Inhibition” value in the data set on hind paw edema (hind paw edema vs vehicle) turned out to be 32%. Besides, the “Paw Volume RP” value in the data set on hind paw edema (right hind paw injected with carrageenan, 4 hours later, average n=8) worked out at 17.38 ×0.01 ml.

Turning to `C=CC[C@@H]1/C=C(\C)C[C@H](C)C[C@H](OC)[C@H]2O[C@@](O)(C(=O)C(=O)N3CCCC[C@H]3C(=O)O[C@H](/C(C)=C/[C@@H]3CC[C@@H](O)[C@H](OC)C3)[C@H](C)[C@@H](O)CC1=O)[C@H](C)C[C@@H]2OC` [FK506], the “survival of heart allografts, MST ± SD” value with heart allograft turned out to be 22.3±6.7 days.

Consider “RRRRRRSVQWAAVSQPIATEAFQWQRNMRKRRR [LPF-25]”, for which the “MIC GeoMean” value in data set [1] came to 66 µg/mL.

Turning to “RRRRRRSVQWAAVSQPIATKAFQWQRNMRKRRR [LPF-36]”, in data set [1], the “MIC GeoMean” value worked out at 24 µg/mL.

With “RRRRRRSVQWQAVSQPEATKQFQWQRNMRKRRR [LPF-31]”, the “MIC GeoMean” value in data set [1] worked out at 41 µg/mL.

Consider “RRRRRRSVQWQAVSQPGATKQFQWQRNMRKRRR [LPF-32]”, for which, in the data set on Ascaris suum antigen, the “late phase inflammation and airway hyperresponsiveness” value was “substantially inhibit”. The “MIC GeoMean” value in data set [1] amounted to 25 µg/mL.

On to “RRRRRRSVQWQAVSQPIATEQFQWQRNMRKRRR [LPF-24]”, for which, in data set [1], the “MIC GeoMean” value is 43 µg/mL and 51 µg/mL.

“RRRRRRSVQWQAVSQPIATIQFQWQRNMRKRRR [LPF-35]”: the “expression of MIP3-α in Hepatocytes” value in the data set on MIP3-α is “stimulates”. In data set [1], the “MIC GeoMean” value came to 15 µg/mL.

With “RRRRRRSVQWQAVSQPIATKQFQWQRNMRKRRR [LPF-33]”, in data set [1], the “MIC GeoMean” value turned out to be 28 µg/mL.

As for “RRRRRRSVQWQAVSQPQATGQFQWQRNMRKRRR [LPF-34]”, the “MIC GeoMean” value in data set [1] stood at 32 µg/mL.

For the origin of these results see patent publication US7420033B2, “Composition of lactoferrin related peptides and uses thereof” (Agennix, Inc., priority 2004, dated 2008).
